“Also recorded” adds a separate entry of the source.
Tests used:
Type in all cases: physicochemical
[1] = Storage of methanol-moist crystal form A and conversion into crystal form C
Procedure: In separate containers, 5 g each of crystal form A were each stirred with 20 g of MeOH and subsequently filtered off.
At 20° C., 30° C. and 35° C., the moistened products were stored for one week and a sample taken daily. These samples were dried at 65° C. and 100 mbar and the respective methanol content subsequently determined.
Already after 2 days (35° C.), 3 days (30° C.) and 7 days (20° C.), crystal form A had converted practically completely into crystal form C (MeOH content about 6.4% by weight).

[2] = Hygroscopicity: open storage over water for one week at 25° C., water content by Karl Fischer titration; settings: for Water content of the sample after storage: one week at 25° C. in sealed beaker over water, Karl Fischer titration
Procedure: 100 mg each of crystal forms A, B and C were separately filled into small glass vials with snap-on caps. These three glass vials with snap-on caps were placed unsealed in a glass beaker of which the bottom was covered with a small amount of water. The glass beaker was then sealed with a reversible sealing film and stored for one week at 25° C. After this storage period, the water content of the respective sample was determined by Karl Fischer titration.

[3] = Sorption/desorption curve, isothermal at 25° C.; settings: for Desorption (% by weight) / Sorption (% by weight): 25° C.
Procedure: Sorption and desorption curves of crystal form B were measured isothermically at 25° C. The sorption curve gives the water uptake at increasing relative humidity and the desorption curve gives the drying behaviour on moisture reduction.

[4] = Stability test of crystal form B in methanol; settings: suspended in methanol, stirred 7 days at 30° C., filtered and dried
Procedure: 10 g of crystal form B (MeOH content<0.01%) were suspended in 100 g of methanol and stirred for 7 days at 30° C. The product was filtered and then dried overnight at 70° C. and a pressure<100 mbar. 9.1 g of a 99.4% strength product were obtained. The methanol content in the product obtained was 0.004% by weight and the acetone content was 0.0003% by weight.

SMILES: COc1cc(OC)nc(NC(=O)NS(=O)(=O)c2cc(NC=O)ccc2C(=O)N(C)C)n1.[Na] [Crystal form A, reference compound]
- Time until practically complete conversion into crystal form C ([1]; stored at 20° C.): 7 days
- Time until practically complete conversion into crystal form C ([1]; stored at 30° C.): 3 days
- Time until practically complete conversion into crystal form C ([1]; stored at 35° C.): 2 days
- Water content of the sample after storage ([2]; listed as crystal form A): 15.7 % by weight
- Appearance of the sample after storage ([2]; one week at 25° C. over water): very ductile and sticky
- Hygroscopicity (in words) ([2]; one week at 25° C. over water): hygroscopic

SMILES: COc1cc(OC)nc(NC(=O)[N-]S(=O)(=O)c2cc(NC=O)ccc2C(=O)N(C)C)n1.[Na+] [Crystal form B, monosodium salt of foramsulfuron]
- Hygroscopicity (in words) ([3]; conclusion from sorption/desorption at 25° C.): not hygroscopic; also recorded: non-hygroscopic
- Desorption (% by weight) ([3]; relative humidity 10.0%): 0.846 % by weight
- Sorption (% by weight) ([3]; relative humidity 10.0%): 0.100 % by weight
- Desorption (% by weight) ([3]; relative humidity 20.0%): 1.227 % by weight
- Sorption (% by weight) ([3]; relative humidity 20.0%): 0.201 % by weight
- Desorption (% by weight) ([3]; relative humidity 30.0%): 1.495 % by weight
- Sorption (% by weight) ([3]; relative humidity 30.0%): 0.313 % by weight
- Desorption (% by weight) ([3]; relative humidity 40.0%): 1.760 % by weight
- Sorption (% by weight) ([3]; relative humidity 40.0%): 0.444 % by weight
- Desorption (% by weight) ([3]; relative humidity 50.0%): 2.086 % by weight
- Sorption (% by weight) ([3]; relative humidity 50.0%): 0.566 % by weight
- Desorption (% by weight) ([3]; relative humidity 60.0%): 2.269 % by weight
- Sorption (% by weight) ([3]; relative humidity 60.0%): 0.684 % by weight
- Desorption (% by weight) ([3]; relative humidity 70.0%): 2.485 % by weight
- Sorption (% by weight) ([3]; relative humidity 70.0%): 0.864 % by weight
- Desorption (% by weight) ([3]; relative humidity 80.0%): 3.016 % by weight
- Sorption (% by weight) ([3]; relative humidity 80.0%): 1.085 % by weight
- Desorption (% by weight) ([3]; relative humidity 90.0%): 5.151 % by weight
- Sorption (% by weight) ([3]; relative humidity 90.0%): 2.335 % by weight
- Methanol content in the product obtained [4]: 0.004 % by weight
- Water content of the sample after storage [2]: 0.4 % by weight
- Appearance of the sample after storage ([2]; one week at 25° C. over water): still crystalline and powdery

SMILES: COc1cc(OC)nc(NC(=O)NS(=O)(=O)c2cc(NC=O)ccc2C(=O)N(C)C)n1.[Na] [Crystal form C]
- Water content of the sample after storage ([2]; listed as crystal form C): 21.3 % by weight

Reference: patent US20180022711A1, “NOVEL CRYSTAL FORMS OF THE MONOSODIUM SALT OF FORAMSULFURON” (BAYER CROPSCIENCE AKTIENGESELLSCHAFT, priority 2014, published 2018)
